Assay results taken from article PMC8636942, “Ab initio Designed Antimicrobial Peptides Against Gram-Negative Bacteria” (Frontiers in Microbiology, 2021).
Values after ≈ are worked out from the molar mass of the structure shown. Where two headings read alike, the source gives them in different places. No end group written: not given here.

Legend:
E. coli ATCC 51659 = type: cell-based, Escherichia coli
Procedure: (§1) The antimicrobial activity of the PHNX peptides (China Peptides custom synthesis) and LL-37 (AnaSpec 61302) against bacteria was determined as previously described ([Barksdale et al., 2016], [2017]). Briefly, 1 × 10^5 CFU per well of bacteria were incubated with different peptide concentrations (n = 3) in a 50-μl solution of 10 mM sodium phosphate buffer (3 h, 37°C). Serial dilutions were then prepared in 1X Dulbecco’s PBS and 8 μl of each dilution was spotted in triplicate on Tryptic Soy Agar plates, which were incubated (37°C, 24 h) and CFUs were counted ([Barksdale et al., 2016], [2017]). Bacterial survival at each peptide concentration was calculated based on the ratio of the number of colonies on each experimental plate and the average number of colonies observed for assay cultures lacking peptide. The peptide concentration required to kill 50% of the viable bacteria in the assay cultures (EC50) was determined by plotting percent survival as a function of the log of peptide concentration (log μg/ml) and fitting the data using GraphPad Prism 6 (GraphPad Software Inc., San Diego, CA, United States). For the purpose of graphing, samples that had no peptide (0 μg/ml) are plotted at 1 × 10^–7 μg/ml peptide. EC50 values were determined by fitting the data from the antimicrobial assays to a standard sigmoidal dose–response curve. […] Wells containing only 10 mM sodium phosphate buffer were used as sterility control.

S. aureus ATCC 33592 = type: cell-based, Staphylococcus aureus
Procedure: as §1

[1] = system: E. coli ATCC 51659 (MDR, O157:H7); settings: Mueller Hinton Broth; for Minimum inhibitory concentration (MIC): MDR strain, CLSI broth microdilution, 5 × 10^4 CFU/well, OD600, <10% of untreated control = clear, n = 3; for Minimum inhibitory concentration (MIC) / Antibacterial screening: growth inhibition / bactericidal activity: 16–20 h, 37°C; for Antibacterial screening: growth inhibition / bactericidal activity: 5 × 10^5 CFU/mL, OD600, n = 3
human red blood cells = test: Hemolysis assay; type: cell-based; settings: 2% human RBCs (K2EDTA blood) in PBS, 1 h, 37°C
[2] = system: S. aureus ATCC 33592 (MDR, MRSA); settings: Mueller Hinton Broth, 16–20 h, 37°C; for Minimum inhibitory concentration (MIC): MDR (MRSA) strain, CLSI broth microdilution, 5 × 10^4 CFU/well, OD600, n = 3; for Antibacterial screening: growth inhibition / bactericidal activity: peptide 100 μg/ml, 5 × 10^5 CFU/mL, OD600, n = 3
[3] = system: S. aureus ATCC BAA-1718 (antibiotic susceptible); settings: antibiotic susceptible strain; CLSI broth microdilution, Mueller Hinton Broth, 5 × 10^4 CFU/well, 16–20 h, 37°C, OD600; n = 3
[4] = system: E. coli ATCC 4157 (antibiotic susceptible); settings: Mueller Hinton Broth; for Minimum inhibitory concentration (MIC): antibiotic susceptible strain, CLSI broth microdilution, 5 × 10^4 CFU/well, OD600, n = 3
[5] = peptide 100 μg/ml, OD540, DI water = full lysis, n = 3
[6] = same EC50 presented in micromolar units, 10 mM sodium phosphate buffer, 3 h, 37°C, read-out: EC50

| Compound | EC50 (E. coli ATCC 51659; ATCC 51659, 3 h) [nM] | Half maximal effective concentration (EC50) (E. coli ATCC 51659; ATCC 51659, 3 h) [µg/mL] | EC50 (S. aureus ATCC 33592; ATCC 33592, 3 h) [µM] | Minimum inhibitory concentration (MIC) [1] [µg/mL] | also measured |
| --- | --- | --- | --- | --- | --- |
| FLLKIVALLKKKLL [PHNX-1] | 80 | ≤ 10 | 0.14 | – | – |
| FLIKILKGGKGGK [PHNX-5] | 3640 | ≤ 10 | > 7.36 | >100 | – |
| CC[C@H](C)[C@H](NC(=O)[C@H](CCCCN)NC(=O)[C@H](CCC(=O)O)NC(=O)[C@H](CCCCN)NC(=O)[C@H](CO)NC(=O)[C@H](CCCCN)NC(=O)[C@H](CCCNC(=N)N)NC(=O)[C@H](Cc1ccccc1)NC(=O)[C@H](Cc1ccccc1)NC(=O)[C@H](CC(=O)O)NC(=O)CNC(=O)[C@H](CC(C)C)NC(=O)[C@@H](N)CC(C)C)C(=O)NCC(=O)N[C@@H](CCCCN)C(=O)N[C@@H](CCC(=O)O)C(=O)N[C@@H](Cc1ccccc1)C(=O)N[C@@H](CCCCN)C(=O)N[C@@H](CCCNC(=N)N)C(=O)N[C@H](C(=O)N[C@H](C(=O)N[C@@H](CCC(N)=O)C(=O)N[C@@H](CCCNC(=N)N)C(=O)N[C@H](C(=O)N[C@@H](CCCCN)C(=O)N[C@@H](CC(=O)O)C(=O)N[C@@H](Cc1ccccc1)C(=O)N[C@@H](CC(C)C)C(=O)N[C@@H](CCCNC(=N)N)C(=O)N[C@@H](CC(N)=O)C(=O)N[C@@H](CC(C)C)C(=O)N[C@H](C(=O)N1CCC[C@H]1C(=O)N[C@@H](CCCNC(=N)N)C(=O)N[C@H](C(=O)N[C@@H](CCC(=O)O)C(=O)N[C@@H](CO)C(=O)O)[C@@H](C)O)C(C)C)[C@@H](C)CC)C(C)C)[C@@H](C)CC [LL-37] | – | – | – | 32 (≈ 7.12 µM) | Hemolysis (human red blood cells; peptide 1 μg/ml, OD540, n = 3): negligible hemolysis; Hemolysis (human red blood cells; [5]): approximately 40% |
| FGKLLKLGKGLKG [PHNX-3] | – | >10 | – | >100 | EC50 (S. aureus ATCC 33592; [6]): > 7.34 µM |
| GVVDIIKGAGKKFAKGLAGKIANKK [PHNX-7] | 20 | ≤ 10 | 0.83 | – | – |
| VRLIVAVRIWRR-NH2 (C-terminus assumed) [IDR-1018] | – | – | – | ~16 | Hemolysis (human red blood cells; peptide 1 μg/ml, OD540, n = 3): negligible hemolysis; Hemolysis (human red blood cells; peptide 10 μg/ml, OD540, n = 3): ~10%; Hemolysis (human red blood cells; [5]): approximately 40%; Antibacterial screening: growth inhibition / bactericidal activity ([1]; peptide 100 μg/ml): 100%; Minimum inhibitory concentration (MIC) [2]: ~16 µg/mL; Antibacterial screening: growth inhibition / bactericidal activity [2]: 100%; Minimum inhibitory concentration (MIC) [3]: ~16 µg/mL |
| FGKLLKLGKGLGG [PHNX-2] | > 7780 | – | – | >100 | EC50 (S. aureus ATCC 33592; [6]): > 7.78 µM |
| FIGAIASYLKKFR [PHNX-6] | 1720 | ≤ 10 | 5.24 | >100 | – |
| KRFKKFFRKLKKSVKKRAKEFFKKPRVIGVSIPF [BF-CATH, reference compound] | – | – | – | 8 | Antibacterial screening: growth inhibition / bactericidal activity ([1]; peptide 100 μg/ml): 100%; Minimum inhibitory concentration (MIC) [2]: 64 µg/mL; Antibacterial screening: growth inhibition / bactericidal activity [2]: 100%; Minimum inhibitory concentration (MIC) ([4]; 16–20 h, 37°C): 4 µg/mL |
| FLLKLGLGKKKLL [PHNX-4] | 1980 | ≤ 10 | 3.29 | – | – |
| GLMDTVKNAAKNLAGQLLD KIKCKITG (disulfide) [PHNX-8] | – | – | – | 64 | EC50 (E. coli ATCC 51659; [6]): 20 nM; Half maximal effective concentration (EC50) (S. aureus ATCC 33592; low salt: 10 mM sodium phosphate buffer, 1 × 10^5 CFU per well, 3 h, 37°C, CFU counting, sigmoidal fit, n = 3): 3.31 µg/mL; EC50 (S. aureus ATCC 33592; [6]): 1.12 µM; Antibacterial screening: growth inhibition / bactericidal activity ([1]; peptide 100 μg/ml): showed activity; Antibacterial screening: bacterial survival ([1]; peptide 100 μg/ml, Figure 3C): ~0%; Minimum inhibitory concentration (MIC) ([4]; 16–20 h, 37°C): 32 µg/mL; Antibacterial screening: growth inhibition / bactericidal activity ([4]; peptide 100 μg/ml, 5 × 10^5 CFU/mL, 16–20 h, 37°C, OD600, n = 3): showed activity; Antibacterial screening: bacterial survival ([4]; peptide 100 μg/ml, Figure 3A): ~0% |
